Laboratory results taken from the supplement of paper PMC10307832.

Legend:
Experiment in all cases: relative viability (nuclei count vs DMSO), 5 days (fraction); higher = more cells survive
AZD5582 + Olaparib = compound: C[C@@H](C(=O)N[C@@H](C1CCCCC1)C(=O)N2CCC[C@H]2C(=O)N[C@@H]3[C@@H](CC4=CC=CC=C34)OCC#CC#CCO[C@@H]5CC6=CC=CC=C6[C@@H]5NC(=O)[C@@H]7CCCN7C(=O)[C@H](C8CCCCC8)NC(=O)[C@H](C)NC)NC [AZD5582] + O=C(c1cc(Cc2n[nH]c(=O)c3ccccc23)ccc1F)N1CCN(C(=O)C2CC2)CC1 [Olaparib] (partner 8 µM)
Summary of the method: (§1)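 One day after seeding in 1536-well plates, lung cancer cell lines were dosed by pin tool. Dosing was either single-drug or a fixed anchor-drug dose plus five library-drug doses (not always all listed) in √10 steps. After 5 days, nuclei were stained in one fix-and-stain step and counted on 4× images, and relative viability is the nuclei count of treated wells over that of vehicle wells, given as the median of duplicate plates.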

Temozolomide + OSI-027 = compound: Cn1nnc2c(C(N)=O)ncn2c1=O [Temozolomide] + COc1cccc2cc(-c3nc([C@H]4CC[C@H](C(=O)O)CC4)n4ncnc(N)c34)[nH]c12 [OSI-027] (partner 0.5 µM)
Summary of the method: as §1

[1] = compound: Cn1nnc2c(C(N)=O)ncn2c1=O [Temozolomide] + C[C@@H](Oc1cc(-c2cnn(C3CCNCC3)c2)cnc1N)c1c(Cl)ccc(F)c1Cl [Crizotinib] (partner 1 µM)
Summary of the method: as §1

[2] = compound: Cn1nnc2c(C(N)=O)ncn2c1=O [Temozolomide] + CC(=O)Nc1cccc(-n2c(=O)n(C3CC3)c(=O)c3c(Nc4ccc(I)cc4F)n(C)c(=O)c(C)c32)c1 [Trametinib] (partner 0.02 µM)
Summary of the method: as §1

Cell Line	relative viability (AZD5582 + Olaparib; first compound 0.001581 µM)	relative viability (AZD5582 + Olaparib; first compound 0.005 µM)	relative viability (AZD5582 + Olaparib; first compound 0.01581 µM)	relative viability (AZD5582 + Olaparib; first compound 0.05 µM)	relative viability (Temozolomide + OSI-027; first compound 0.2 µM)	relative viability (Temozolomide + OSI-027; first compound 0.6325 µM)	relative viability (Temozolomide + OSI-027; first compound 2 µM)	relative viability (Temozolomide + OSI-027; first compound 6.325 µM)	relative viability (Temozolomide + OSI-027; first compound 20 µM)	relative viability ([1]; first compound 0.2 µM)	relative viability ([1]; first compound 0.6325 µM)	relative viability ([1]; first compound 2 µM)	relative viability ([1]; first compound 6.325 µM)	relative viability ([1]; first compound 20 µM)	relative viability ([2]; first compound 0.6325 µM)	relative viability ([2]; first compound 2 µM)	relative viability ([2]; first compound 6.325 µM)	relative viability ([2]; first compound 20 µM)	relative viability ([2]; first compound 0.2 µM)
EKVX	0.777	0.894	0.725	0.854	0.513	0.669	0.555	0.686	0.591	0.357	1.07	0.951	0.886	0.551	0.318	0.286	0.338	0.247	–
LOU-NH91	0.875	0.945	0.928	0.903	0.494	0.729	0.781	0.756	0.493	0.557	0.758	0.75	0.704	0.532	0.806	0.793	0.806	0.7	0.731
NCI-H1355	0.68	0.728	0.658	0.774	0.349	0.421	0.455	0.382	0.352	1.11	1.13	1.09	1.11	0.97	0.464	0.483	0.452	0.403	0.436
SK-LU-1	0.353	0.274	0.466	0.142	0.408	0.341	0.334	0.24	0.272	0.978	1.06	0.92	0.518	0.463	0.487	0.44	0.382	0.361	0.534
LK-2	0.63	0.702	0.772	0.675	0.2	0.218	0.214	0.168	0.196	0.26	0.229	0.252	0.206	0.213	0.685	0.663	0.653	0.489	0.653
NCI-H650	0.321	0.32	0.366	0.307	0.562	0.535	0.584	0.506	0.534	0.679	0.697	0.607	0.725	0.669	1.02	1.38	0.869	1.01	0.954
NCI-H2085	0.842	0.903	0.726	0.733	0.537	0.886	1.05	0.734	0.577	0.746	0.904	0.651	0.866	0.685	0.438	0.621	0.513	0.581	0.527
RERF-LC-KJ	–	–	0.852	0.691	0.495	0.6	0.597	0.53	0.554	0.884	0.848	0.838	0.818	0.833	0.815	0.763	0.845	0.826	0.788
NCI-H727	0.698	0.73	0.65	0.781	0.638	0.779	0.712	0.493	0.534	0.876	0.73	0.812	0.791	0.763	0.426	0.397	0.435	0.403	–
NCI-H1651	0.175	0.183	0.18	0.163	0.724	0.727	0.657	0.636	0.636	0.8	0.869	0.818	0.85	0.864	0.834	0.818	0.77	0.84	0.677
NCI-H522	0.554	0.628	0.641	0.674	0.723	0.729	0.778	0.665	0.648	–	–	–	–	–	0.724	0.954	0.691	0.671	0.654
IA-LM	0.708	0.586	0.649	0.582	–	–	–	–	–	1.27	0.719	1.09	0.706	0.962	–	–	–	–	–
NCI-H1299	0.943	0.965	0.963	0.931	–	–	–	–	–	1.02	0.934	0.988	0.989	0.975	–	–	–	–	–
NCI-H1623	–	–	–	–	–	0.462	0.471	0.388	0.297	–	–	–	–	–	–	–	–	–	–
NCI-H1563	–	–	–	–	0.781	0.817	0.77	0.789	0.796	0.911	0.853	0.965	0.847	0.729	–	–	–	–	–
NCI-H1648	0.65	0.735	–	0.672	–	0.23	0.262	0.235	0.274	–	–	–	–	–	0.477	0.454	0.545	0.307	–
Calu-6	0.489	–	0.629	0.258	–	–	–	–	–	0.997	0.83	0.904	0.817	0.767	–	–	–	–	–
NCI-H2342	0.325	0.361	0.463	0.438	0.544	0.665	0.618	0.59	0.678	–	–	–	–	–	0.848	0.757	0.799	0.818	0.638
EBC-1	0.646	0.707	0.639	0.571	–	–	–	–	–	0.167	0.2	0.229	0.208	0.194	–	–	–	–	–
A549	0.283	0.301	0.292	0.36	–	–	–	–	–	0.809	0.829	0.869	0.754	0.816	–	–	–	–	–
NCI-H1395	0.445	0.433	–	0.464	0.629	0.604	0.686	0.513	0.659	–	–	–	–	–	1.06	1.17	0.986	1.02	0.815
SW 900	0.667	0.656	0.79	0.495	0.569	0.618	0.47	0.5	0.744	–	–	–	–	–	0.783	0.966	1	0.59	0.728
